From ChEMBL document CHEMBL5257055, “Contemporary Progress and Opportunities in RNA-Targeted Drug Discovery” (ACS Med Chem Lett, 2023)
pKd: −log10 of the molar value. Numbered stars: 1 amine (or outer) side, 2 acyl side, 3 side chain; on linkers, the order of the positions; unused ones are H or OH. Bridge positions count the residues as written; N and C are the ends. Peptide text beside a SMILES is read from it. X1 = CCC(C)CCCCCCCCC(CC(=O)[*:1])O[*:2]

How the values were obtained:
[1] = Binding affinity to pre-miR-21 (unknown origin) assessed as dissociation constant
[2] = Binding affinity to preQ1
[3] = Binding affinity to pre-mRNA (unknown origin)
[4] = Binding affinity to pre-miR-200c (unknown origin) assessed as dissociation constant
[5] = Binding affinity to HCV RNA; design: species or system Hepacivirus hominis
[6] = Binding affinity to XIST RNA (unknown origin)
[7] = Binding affinity to HIV-1 RNA assessed as dissociation constant; design: species or system Human immunodeficiency virus 1
[8] = Binding affinity to pre-miR-96 (unknown origin) assessed as dissociation constant
[9] = Binding affinity to pre-miR-210 (unknown origin) assessed as dissociation constant
[10] = Binding affinity to CUG repeat RNA (unknown origin) assessed as dissociation constant
[11] = Binding affinity to CGG repeat RNA (unknown origin) assessed as dissociation constant
[12] = Binding affinity to HCV IRES; design: species or system Hepacivirus hominis
Sulfhydryl oxidase 1 = biological target: T1, Sulfhydryl oxidase 1 (Homo sapiens, UniProt O00391); test: Binding affinity to QSOX1 (unknown origin) assessed as dissociation constant
T1 sequence (O00391 whole entry): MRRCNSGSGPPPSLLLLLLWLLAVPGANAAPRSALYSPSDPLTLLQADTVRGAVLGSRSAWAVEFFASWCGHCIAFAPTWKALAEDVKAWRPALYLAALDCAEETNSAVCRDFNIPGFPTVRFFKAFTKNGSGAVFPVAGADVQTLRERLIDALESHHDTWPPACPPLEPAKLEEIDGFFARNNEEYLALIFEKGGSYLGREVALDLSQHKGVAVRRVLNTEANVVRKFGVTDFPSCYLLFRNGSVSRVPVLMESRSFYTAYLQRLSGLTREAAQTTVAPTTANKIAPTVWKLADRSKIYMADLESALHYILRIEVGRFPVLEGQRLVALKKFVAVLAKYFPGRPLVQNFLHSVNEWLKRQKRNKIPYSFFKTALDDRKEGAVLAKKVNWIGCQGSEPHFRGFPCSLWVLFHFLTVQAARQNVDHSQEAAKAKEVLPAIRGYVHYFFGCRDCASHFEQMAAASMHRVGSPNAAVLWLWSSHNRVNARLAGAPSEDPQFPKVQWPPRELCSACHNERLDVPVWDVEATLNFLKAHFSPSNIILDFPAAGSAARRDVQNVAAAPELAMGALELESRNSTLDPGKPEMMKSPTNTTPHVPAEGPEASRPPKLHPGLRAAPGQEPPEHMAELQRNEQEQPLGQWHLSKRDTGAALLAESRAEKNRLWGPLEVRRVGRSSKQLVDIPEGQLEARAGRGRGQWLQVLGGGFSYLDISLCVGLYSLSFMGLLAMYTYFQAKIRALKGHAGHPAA

[13] = Binding affinity to SARS-CoV-2 Attenuator hairpin RNA by MST assay; design: species or system Severe acute respiratory syndrome coronavirus 2
[14] = Binding affinity to mouse MALAT1 assessed as dissociation constant
[15] = Binding affinity to r(AUUCA) repeat RNA (unknown origin) assessed as dissociation constant
FMN riboswitch = test: Binding affinity to Escherichia coli FMN riboswitch RNA assessed as dissociation constant; assay type: nucleic-acid assay
[16] = Binding affinity to pre-miR-27a (unknown origin) assessed as dissociation constant
[17] = Binding affinity to CAG repeat RNA (unknown origin) assessed as dissociation constant
[18] = Binding affinity to pre-miR-544 (unknown origin) assessed as dissociation constant

C#CCCC1(CCC(=O)Nc2ccc(OC)c(OCc3cn4ccccc4n3)c2)N=N1
pKd [1]: 6.59

NCCOc1ccc2oc3ccccc3c2c1
pKd [2]: 6.30

CCC(C)CCCCCCCCC1CC(=O)N[C@@H](CCC(=O)O)C(=O)N[C@@H](CC(C)C)C(=O)N[C@@H](CC(C)C)C(=O)N[C@@H](C(C)C)C(=O)N[C@@H](CC(=O)O)C(=O)N[C@@H](CC(C)C)C(=O)N[C@@H](CC(C)C)C(=O)O1 (stereo partly drawn) (ELLVDLL; linker N-C via X1)
pKd [1]: 6.11

O=C1c2c(O)ccc(O)c2C(=O)c2c(NCCNCCO)ccc(NCCNCCO)c21 [MITOXANTRONE]
pKd [3]: > 6.00
pKd [1]: 7.48

O=C(Nc1ccc(C2=NCCN2)cc1)c1cc(C(=O)Nc2ccc(C3=NCCN3)cc2)cc(C(=O)Nc2ccc(C3=NCCN3)cc2)c1
pKd [4]: 5.96
pKd [5]: 6.07

c1ccc(COc2cccc(-c3ccc4[nH]nc(-c5nc6ccccc6[nH]5)c4c3)c2)cc1
pKd [6]: 6.40

CC(=O)c1c(C)c2cnc(Nc3ccc(N4CCNCC4)cn3)nc2n(C2CCCC2)c1=O [PALBOCICLIB]
pKd [7]: 6.98

CN1CCN(c2ccc3nc(-c4ccc5[nH]c(-c6cccc(OCCCC(=O)NCCCN=[N+]=[N-])c6)nc5c4)[nH]c3c2)CC1
pKd [8]: 5.82
pKd [9]: 5.77
pKd [10]: 6.82
pKd [11]: 6.43

NC(=O)CNC(=O)[C@H](Cc1ccc(Cl)cc1)NC(=O)c1ccc2nc(-c3ccccc3)[nH]c2c1
pKd [10]: 5.20

O=C(NCCN1CCCC1)c1ccc2oc(C(=O)c3cc(O)c(O)c(O)c3)cc2c1
pKd [12]: 6.44

C#CCCC1(CCC(=O)N(C)[C@@H]2CC[C@H](c3ccc(Cl)c(Cl)c3)c3ccccc32)N=N1
pKd (Sulfhydryl oxidase 1): 4.80

CNc1nc(Nc2cccc(C(=O)O)c2)nc2ccccc12
pKd [13]: 7.96

COc1ccc(-c2cnc(NCc3cccc(OC)c3)n2C)cc1
pKd [14]: 5.54

CN(C)c1nc(N)c(C(=O)NC(=N)N)nc1C#Cc1ccccc1
pKd [12]: 6.28

N=C(N)c1ccc(-c2ccc(-c3ccc(C(=N)N)cc3)o2)cc1 [FURAMIDINE]
pKd [15]: 6.77
pKd [14]: 6.25

CNc1ncc(CN2CCCC(c3nc(O)cc(-c4cccs4)n3)C2)cn1 (stereo not drawn)
pKd (FMN riboswitch): 7.80

Cc1ccc(C(=O)N2Cc3ccccc3C[C@H]2C(N)=O)cc1NCc1c(F)ccc(O)c1F
pKd [16]: 7.03

C#CCN(CC(N)=O)C(=O)C[C@@H](Cc1c[nH]c2ccccc12)NC(=O)[C@H]1CC(NC(=O)Cn2c(=O)[nH]c3ccccc3c2=O)CN1 (stereo partly drawn)
pKd [16]: 7.05

CN(C)CC1COc2ccc3nc4n(c3c2C1)CC(CN(C)C)CN4 (stereo not drawn)
pKd [12]: 6.14

N#Cc1c(N2CCCC2)nc(N)c2c(N)nc(N3CCCC3)cc12
pKd [10]: 6.90
pKd [17]: 5.85
pKd [18]: 6.00
